Key:
[1] = tested on: Sclerotium cepivorum; assay: Example 1: in vitro growth on agar plates containing organic acids; assay type: cell-based; design: Sclerotium Treated (in vitro growth, mean±SE): unit not given here; conditions: for Sclerotium Treated (in vitro growth, mean±SE): n=4 plates
Experimental: (§1) In FIG. 1, n.s. indicates “not significant”, ppm indicates “parts per million”; L and (S) indicate levorotatory and sinister rotatory, respectively, and asterisks are used to indicate degrees of statistical significance according to standard conventions. 2-fold concentrated compositions of lactate and acetate were diluted 1:1 with a deionized water + agar solution to prepare agar plates
(§2) In a first round of experiments, the effect of acetate, and dextrorotary (d), levorotary (1), and racemic mixtures of enantiomers of lactate alone, or in combination with acetate was evaluated on the growth of Sclerotium cepivorum and Botrytis cinera (Tables 1A and 1B).
(§3) The effects of higher concentrations of acetate and lactate L (S) on growth was evaluated (Tables 2A and 2B).

[2] = tested on: Botrytis cinerea; assay: as above; assay type: cell-based; design: Botrytis Treated (in vitro growth, mean±SE): unit not given here; conditions: for Botrytis Treated (in vitro growth, mean±SE): n=4 plates
Experimental: as §1, §2, §3

[3] = 175 ppm, 7 days after inoculation
[4] = 175 ppm, 7 days, negative = inhibition, n.s./bracketed = not significant
[5] = 350 ppm, 7 days after inoculation
[6] = 350 ppm, 7 days, negative = inhibition, n.s./bracketed = not significant
[7] = first round, concentrations of Tables 1A and 1B
[8] = 175 ppm, 7 days, n.s./bracketed = not significant
[9] = 350 ppm, 7 days, n.s./bracketed = not significant
[10] = 200 ppm, 7 days after inoculation
[11] = 400 ppm, 7 days after inoculation
[12] = 600 ppm, 7 days, second round (higher concentrations)
[13] = 600 ppm, 7 days, second round, n.s./bracketed = not significant
[14] = higher concentrations, Tables 2A and 2B

With `CC(O)C(=O)O` (racemic) [Lactate DL (RS racemic mix), reference compound] as the molecule, how does the “Sclerotium Treated (in vitro growth, mean±SE)” value [1, 3] read?
Its value is 2.06 ± 1.18.

What about the “% Efficacy (percentage of mean growth in control plates)” value [1, 4] of the same molecule?
Its value is -72%.

What about the “Sclerotium Treated (in vitro growth, mean±SE)” value [1, 5] of the same molecule?
Its value is 6.71 ± 2.90.

And the “% Efficacy (percentage of mean growth in control plates)” value [1, 6]?
Its value is “n.s”.

What about the “effect on growth of S. cepivorum (in words)” value [1, 7] of the same molecule?
The value was “inhibited growth”.

And the “Botrytis Treated (in vitro growth, mean±SE)” value [2, 3]?
Its value is 16.81 ± 1.23.

What about the “% Efficacy (percentage of mean growth in control plates)” value [2, 8] of the same molecule?
Its value is “n.s”.

What about the “Botrytis Treated (in vitro growth, mean±SE)” value [2, 5] of the same molecule?
The value was 26.15 ± 3.37.

What about the “% Efficacy (percentage of mean growth in control plates)” value [2, 9] of the same molecule?
The value was “n.s”.

With `CC(=O)O` [Acetate, acetic acid] as the molecule, how does the “Sclerotium Treated (in vitro growth, mean±SE)” value [1, 10] read?
Its value is 3.63 ± 2.30.

And the “% Efficacy (percentage of mean growth in control plates)” value ([1]; 200 ppm, 7 days, negative = inhibition, n.s./bracketed = not significant)?
Its value is “n.s. [23] %”.

What about the “Sclerotium Treated (in vitro growth, mean±SE)” value [1, 11] of the same molecule?
Its value is 2.62 ± 1.85.

And the “% Efficacy (percentage of mean growth in control plates)” value ([1]; 400 ppm, 7 days, negative = inhibition, n.s./bracketed = not significant)?
Its value is “n.s. [-39] %”.

And the “Sclerotium Treated (in vitro growth, mean±SE)” value [1, 12]?
The value was 2.41 ± 0.57.

And the “% Efficacy (percentage of mean growth in control plates)” value [1, 13]?
The value was -86%.

And the “% Efficacy (percentage of mean growth in control plates)” value ([1]; 800 ppm, 7 days, second round)?
The value was -97%.

And the “Sclerotium Treated (in vitro growth, mean±SE)” value ([1]; 800 ppm, 7 days, second round)?
Its value is 0.51 ± 0.20.

What about the “effect on growth of S. cepivorum (in words)” value [1, 7] of the same molecule?
Its value is “significantly inhibited growth”.

What about the “effect on growth of S. cepivorum (in words)” value [1, 14] of the same molecule?
The value was “increased with acetate concentration at all concentrations evaluated”.

What about the “Botrytis Treated (in vitro growth, mean±SE)” value [2, 10] of the same molecule?
Its value is 16.19 ± 1.09.

And the “% Efficacy (percentage of mean growth in control plates)” value ([2]; 200 ppm, 7 days, negative = inhibition)?
The value was -33%.

And the “Botrytis Treated (in vitro growth, mean±SE)” value [2, 11]?
Its value is 12.37 ± 0.79.

What about the “% Efficacy (percentage of mean growth in control plates)” value ([2]; 400 ppm, 7 days, negative = inhibition) of the same molecule?
The value was -49%.

What about the “% Efficacy (percentage of mean growth in control plates)” value [2, 13] of the same molecule?
The value was “n.s.[11] %”.

What about the “Botrytis Treated (in vitro growth, mean±SE)” value ([2]; 600 ppm, 7 days, second round) of the same molecule?
Its value is 22.25 ± 4.12.

And the “% Efficacy (percentage of mean growth in control plates)” value ([2]; 800 ppm, 7 days, second round, n.s./bracketed = not significant)?
The value was “n.s.[13] %”.

What about the “Botrytis Treated (in vitro growth, mean±SE)” value ([2]; 800 ppm, 7 days, second round) of the same molecule?
The value was 22.73 ± 4.69.

And the “Botrytis Treated (in vitro growth, mean±SE)” value ([2]; 1000 ppm, 7 days, second round)?
Its value is 29.75 ± 3.76.

And the “% Efficacy (percentage of mean growth in control plates)” value ([2]; 1000 ppm, 7 days, second round, positive = more growth)?
Its value is 48%.

And the “effect on growth of B. cinerea (in words)” value [2, 7]?
The value was “significantly inhibited growth”.

And the “effect on growth of B. cinerea (in words)” value ([2]; summary of FIG. 1)?
The value was “inhibited growth of B. cinera at lower concentrations, but served as a carbon source at higher concentrations”.

Which “Sclerotium Treated (in vitro growth, mean±SE)” value [1, 3] does the source give for `C[C@@H](O)C(=O)O` [Lactate D (R), D-lactic acid, reference compound] here?
Its value is 14.09 ± 5.75.

What about the “% Efficacy (percentage of mean growth in control plates)” value [1, 4] of the same molecule?
Its value is “n.s”.

What about the “Sclerotium Treated (in vitro growth, mean±SE)” value [1, 5] of the same molecule?
Its value is 10.68 ± 3.19.

What about the “% Efficacy (percentage of mean growth in control plates)” value [1, 6] of the same molecule?
Its value is “n.s”.

What about the “effect on growth of S. cepivorum (in words)” value [1, 7] of the same molecule?
Its value is “appeared to act as a carbon source”.

What about the “Botrytis Treated (in vitro growth, mean±SE)” value [2, 3] of the same molecule?
The value was 23.42 ± 1.23.

What about the “% Efficacy (percentage of mean growth in control plates)” value [2, 8] of the same molecule?
The value was 49%.

And the “Botrytis Treated (in vitro growth, mean±SE)” value [2, 5]?
The value was 23.82 ± 2.65.

What about the “% Efficacy (percentage of mean growth in control plates)” value [2, 9] of the same molecule?
Its value is “[35] %”.

What does the source list for `C[C@H](O)C(=O)O` [Lactate L (S), L-lactic acid]?
Sclerotium Treated (in vitro growth, mean±SE) [1, 3]: 5.73 ± 1.72; % Efficacy (percentage of mean growth in control plates) [1, 4]: [-43] %; Sclerotium Treated (in vitro growth, mean±SE) [1, 5]: 5.17 ± 1.85; % Efficacy (percentage of mean growth in control plates) [1, 6]: [-46] %; % Efficacy (percentage of mean growth in control plates) ([1]; 450 ppm, 7 days, second round, n.s./bracketed = not significant): n.s.[-7] %; Sclerotium Treated (in vitro growth, mean±SE) ([1]; 450 ppm, 7 days, second round): 16.08 ± 3.55; Sclerotium Treated (in vitro growth, mean±SE) [1, 12]: 20.50 ± 4.10; % Efficacy (percentage of mean growth in control plates) [1, 13]: n.s.[18] %; effect on growth of S. cepivorum (in words) [1, 7]: inhibited growth; effect on growth of S. cepivorum (in words) [1, 14]: not effective; effect on growth of S. cepivorum (in words) ([1]; summary of FIG. 1): inhibited growth of S. cepivorum at lower concentrations, but served as a carbon source at higher concentrations; Botrytis Treated (in vitro growth, mean±SE) [2, 3]: 23.59 ± 2.66; % Efficacy (percentage of mean growth in control plates) [2, 8]: [38] %; Botrytis Treated (in vitro growth, mean±SE) [2, 5]: 27.71 ± 4.97; % Efficacy (percentage of mean growth in control plates) [2, 9]: [71] %
